Activity calls are given as the source filed them.
Columns and labels:
[1] = molecular target: T1, Rac GTPase-activating protein 1 (Homo sapiens, UniProt Q9H0H5); test: blockers of MgcRacGAP-driven Rac1 GTP hydrolysis – biochemical, ADP Hunter fluorescence, primary and confirmatory, confirmation (AID 624330); format: functional
T1 sequence (Q9H0H5 whole entry): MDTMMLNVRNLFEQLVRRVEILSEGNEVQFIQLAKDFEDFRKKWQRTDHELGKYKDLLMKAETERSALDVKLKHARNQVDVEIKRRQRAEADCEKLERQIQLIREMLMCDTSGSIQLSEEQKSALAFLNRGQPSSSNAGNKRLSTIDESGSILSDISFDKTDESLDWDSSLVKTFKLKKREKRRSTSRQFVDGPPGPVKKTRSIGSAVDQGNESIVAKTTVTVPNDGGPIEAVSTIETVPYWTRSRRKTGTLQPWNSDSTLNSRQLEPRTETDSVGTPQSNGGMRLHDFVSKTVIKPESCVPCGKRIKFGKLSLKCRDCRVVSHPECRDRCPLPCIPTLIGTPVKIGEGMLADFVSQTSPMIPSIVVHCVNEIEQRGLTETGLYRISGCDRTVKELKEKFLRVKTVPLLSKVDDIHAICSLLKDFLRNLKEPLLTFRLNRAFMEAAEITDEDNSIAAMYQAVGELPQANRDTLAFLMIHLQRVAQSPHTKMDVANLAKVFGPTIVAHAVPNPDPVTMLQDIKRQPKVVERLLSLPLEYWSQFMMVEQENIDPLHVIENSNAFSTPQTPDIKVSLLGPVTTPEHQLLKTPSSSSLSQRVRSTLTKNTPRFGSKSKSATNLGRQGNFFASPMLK

[2] = molecular target: T2, Zinc finger protein mex-5 (Caenorhabditis elegans, UniProt Q9XUB2); test: potency of MEX-5 RNA-binding blockers – biochemical, C. elegans, fluorescence polarization, dose response (AID 1960)
T2 sequence (Q9XUB2 whole entry): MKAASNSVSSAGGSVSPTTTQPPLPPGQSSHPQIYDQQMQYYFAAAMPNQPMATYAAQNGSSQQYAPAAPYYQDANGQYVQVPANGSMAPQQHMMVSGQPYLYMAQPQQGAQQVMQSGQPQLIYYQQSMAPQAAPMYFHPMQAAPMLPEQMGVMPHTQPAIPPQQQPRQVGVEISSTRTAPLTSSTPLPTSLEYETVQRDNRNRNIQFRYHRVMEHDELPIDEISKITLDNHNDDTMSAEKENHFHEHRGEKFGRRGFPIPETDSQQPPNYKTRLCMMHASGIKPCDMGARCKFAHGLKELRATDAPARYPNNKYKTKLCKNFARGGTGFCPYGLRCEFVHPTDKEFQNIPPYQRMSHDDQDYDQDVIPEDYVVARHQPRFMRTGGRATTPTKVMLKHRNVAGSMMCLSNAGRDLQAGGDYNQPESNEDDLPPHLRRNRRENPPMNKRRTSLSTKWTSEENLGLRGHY

[3] = molecular target: T3, Sentrin-specific protease 1 (Homo sapiens, UniProt Q9P0U3); test: Dose response confirmation of small molecule inhibitors of the catalytic domain of the SUMO protease, SENP1 in a FRET assay.; format: functional; details: read-out: IC50_Mean
[4] = molecular target: T3, Sentrin-specific protease 1; test: SENP1 catalytic domain blockers, concentration series – biochemical, kinetic FRET, dose response (AID 651697); format: functional; details: read-out: IC50_Mean
[5] = molecular target: T4, RNA-binding protein pos-1 (Caenorhabditis elegans, UniProt G5EF15); test: disruptors of C. elegans POS-1 RNA interaction – biochemical, fluorescence polarization, dose response (AID 1964);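 further: purified POS-1 fused to maltose binding protein made in E. coli; potency of compounds blocking POS-1 binding to fluorescent RNA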
T4 sequence (G5EF15 whole entry): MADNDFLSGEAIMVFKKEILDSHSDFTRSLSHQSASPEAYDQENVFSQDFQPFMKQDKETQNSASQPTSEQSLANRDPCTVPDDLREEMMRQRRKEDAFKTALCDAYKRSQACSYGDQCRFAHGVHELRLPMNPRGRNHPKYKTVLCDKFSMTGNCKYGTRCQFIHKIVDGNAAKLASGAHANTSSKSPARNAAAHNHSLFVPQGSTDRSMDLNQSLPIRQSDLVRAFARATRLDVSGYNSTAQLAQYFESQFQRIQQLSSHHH

[6] = molecular target: Long-chain-fatty-acid--AMP ligase FadD28 (Mycobacterium tuberculosis, UniProt P9WQ59); test: Fluorescence polarization aasay to screen for inhibitors that compete for the binding of FadD28 to a bisubstrate Measured in Biochemical System Using Plate Reader - 2147-01_Inhibitor_Dose_CherryPick_Activity.; format: functional, Mycobacterium tuberculosis H37Rv
Chain of Long-chain-fatty-acid--AMP ligase FadD28 (P9WQ59 whole entry): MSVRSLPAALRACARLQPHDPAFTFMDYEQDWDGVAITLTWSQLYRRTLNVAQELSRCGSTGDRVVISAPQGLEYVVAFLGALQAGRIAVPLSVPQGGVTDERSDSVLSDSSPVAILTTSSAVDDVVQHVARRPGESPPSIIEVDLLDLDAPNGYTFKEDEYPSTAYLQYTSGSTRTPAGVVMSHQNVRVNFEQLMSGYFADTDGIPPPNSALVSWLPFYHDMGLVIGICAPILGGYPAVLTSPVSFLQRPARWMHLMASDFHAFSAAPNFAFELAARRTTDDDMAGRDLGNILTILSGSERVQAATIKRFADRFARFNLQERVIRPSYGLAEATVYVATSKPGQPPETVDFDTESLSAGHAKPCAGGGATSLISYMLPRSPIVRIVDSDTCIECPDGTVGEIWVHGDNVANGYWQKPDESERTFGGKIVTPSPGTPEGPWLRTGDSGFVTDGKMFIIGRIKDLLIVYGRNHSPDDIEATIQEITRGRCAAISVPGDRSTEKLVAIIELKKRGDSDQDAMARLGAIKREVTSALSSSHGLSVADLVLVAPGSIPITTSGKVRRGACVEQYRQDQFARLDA

T3 sequence (Q9P0U3 whole entry, the tested form may be a part): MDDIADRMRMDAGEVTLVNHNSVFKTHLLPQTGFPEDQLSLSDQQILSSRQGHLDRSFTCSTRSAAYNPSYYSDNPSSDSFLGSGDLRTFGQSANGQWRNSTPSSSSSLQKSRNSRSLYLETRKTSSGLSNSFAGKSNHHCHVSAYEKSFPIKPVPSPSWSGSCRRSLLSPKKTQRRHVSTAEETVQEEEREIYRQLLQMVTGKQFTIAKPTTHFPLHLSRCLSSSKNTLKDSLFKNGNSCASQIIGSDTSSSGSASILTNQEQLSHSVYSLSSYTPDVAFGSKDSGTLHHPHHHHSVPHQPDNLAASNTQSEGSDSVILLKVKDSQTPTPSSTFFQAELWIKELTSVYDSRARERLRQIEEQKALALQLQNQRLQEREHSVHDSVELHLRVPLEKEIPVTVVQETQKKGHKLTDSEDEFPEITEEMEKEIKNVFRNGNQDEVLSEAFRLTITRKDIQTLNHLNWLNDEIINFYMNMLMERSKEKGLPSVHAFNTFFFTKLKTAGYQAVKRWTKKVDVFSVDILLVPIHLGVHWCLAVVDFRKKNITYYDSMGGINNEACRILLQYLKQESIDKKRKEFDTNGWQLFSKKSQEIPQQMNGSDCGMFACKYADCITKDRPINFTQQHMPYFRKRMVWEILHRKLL

Compound	IC50 [1]	EC50 [2]	IC50 [3]	IC50 [4]	EC50 [5]	AC50 [6]
CC1(C)CC2=Nc3ccccc3SC2=C(O)C1	22.1 µM (active)	59.3 µM (active)	42.4 µM (inactive)	29 µM (inactive)	43.9 µM (active)	
Cc1cccc(NC(=O)Cn2c(=O)oc3ccccc32)n1						27.9 µM (active)
